Measurements: patent publication US20100267561A1, “HERBICIDAL PYRIDAZINONE DERIVATIVES” (priority 2007, published 2010)

How the values were obtained:
Type in all cases: in vivo
[1] = test system: canarygrass (Phalaris minor); assay: Test B postemergence plant response; settings: for Canarygrass plant response rating: 8 g ai/ha, postemergence, 0-100 scale; for Plant response rating, Canarygrass: Postemergence
Outline: (§1)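 Test compounds were applied postemergence to plants 2 to 18 cm tall (1- to 4-leaf stage). After 13 to 15 days in a greenhouse, each species was visually compared with untreated controls and rated 0 (no effect) to 100 (complete control).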

[2] = test system: chickweed (Stellaria media); assay: Test B postemergence plant response; settings: for Chickweed plant response rating: 8 g ai/ha, postemergence, 0-100 scale; for Plant response rating, Chickweed: Postemergence
Outline: as §1

[3] = test system: windgrass (Apera spica-venti); assay: Test B postemergence plant response; settings: for Windgrass plant response rating: 8 g ai/ha, postemergence, 0-100 scale; for Plant response rating, Windgrass: Postemergence
Outline: as §1

[4] = test system: winter barley (Hordeum vulgare); assay: Test B postemergence plant response; settings: for Barley plant response rating: 8 g ai/ha, postemergence, 0-100 scale; for Plant response rating, Barley: Postemergence
Outline: as §1

[5] = test system: Italian ryegrass (Lolium multiflorum); assay: Test C pre-/postemergence plant response
Outline: (§2)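 Application timings covered preemergence and postemergence (1- to 4-leaf plants, 2 to 18 cm), using a non-phytotoxic solvent mixture that included a surfactant. Controlled-environment holding lasted 15 to 25 days before visual scoring, where 100 denotes complete control and 0 no effect.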

[6] = test system: annual bluegrass (Poa annua); assay: Test C pre-/postemergence plant response
Outline: as §2

[7] = test system: blackgrass (Alopecurus myosuroides); assay: Test C pre-/postemergence plant response
Outline: as §2

[8] = test system: canarygrass (Phalaris minor); assay: Test C pre-/postemergence plant response
Outline: as §2

[9] = test system: downy bromegrass (Bromus tectorum); assay: Test C pre-/postemergence plant response
Outline: as §2

[10] = test system: green foxtail (Setaria viridis); assay: Test C pre-/postemergence plant response
Outline: as §2

[11] = test system: pigweed (Amaranthus retroflexus); assay: Test C pre-/postemergence plant response
Outline: as §2

[12] = test system: spring wheat (Triticum aestivum); assay: Test C pre-/postemergence plant response
Outline: as §2

[13] = test system: wild mustard (Sinapis arvensis); assay: Test C pre-/postemergence plant response
Outline: as §2

[14] = test system: wild oat (Avena fatua); assay: Test C pre-/postemergence plant response
Outline: as §2

[15] = test system: windgrass (Apera spica-venti); assay: Test C pre-/postemergence plant response
Outline: as §2

[16] = test system: winter barley (Hordeum vulgare); assay: Test C pre-/postemergence plant response
Outline: as §2

[17] = test system: winter wheat (Triticum aestivum); assay: Test C pre-/postemergence plant response
Outline: as §2

[18] = 62 g ai/ha, scale 0 to 100, 0 no effect, 100 complete control
[19] = 16 g ai/ha, scale 0 to 100, 0 no effect, 100 complete control
[20] = Preemergence, 8 g ai/ha, scale 0 to 100 (0 no effect, 100 complete control)
[21] = Preemergence, 16 g ai/ha, scale 0 to 100 (0 no effect, 100 complete control)
[22] = Preemergence, 31 g ai/ha, scale 0 to 100 (0 no effect, 100 complete control)
[23] = Preemergence, 62 g ai/ha, scale 0 to 100, 0 no effect, 100 complete control
[24] = 31 g ai/ha, scale 0 to 100, 0 no effect, 100 complete control
[25] = Postemergence, 8 g ai/ha, scale 0 to 100, 0 no effect, 100 complete control
[26] = Postemergence, 16 g ai/ha, scale 0 to 100, 0 no effect, 100 complete control
[27] = Postemergence, 31 g ai/ha, scale 0 to 100, 0 no effect, 100 complete control
[28] = Postemergence, 62 g ai/ha, scale 0 to 100, 0 no effect, 100 complete control

Cc1cc(-c2ccc(Cl)cc2)nn1-c1c(OC(=O)c2ccccc2)cnn(C)c1=O [Compound 48]
80: Plant response rating, Windgrass [3, 18] | Plant response rating, Windgrass [15, 23]
20: Plant response rating, Wheat, Winter [17, 22]
60: Plant response rating, Windgrass ([3]; 31 g ai/ha, scale 0 to 100) | Plant response rating, Wheat, Spring [12, 22]
0: Canarygrass plant response rating [1] | Plant response rating, Canarygrass ([1]; 16 g ai/ha, scale 0 to 100) | Chickweed plant response rating [2] | Plant response rating, Chickweed ([2]; 16 g ai/ha, scale 0 to 100) | Plant response rating, Chickweed ([2]; 31 g ai/ha, scale 0 to 100) | Plant response rating, Chickweed [2, 18] | Windgrass plant response rating [3] | Barley plant response rating [4] | Plant response rating, Barley [4, 19] | Plant response rating, Bluegrass [6, 20] | Plant response rating, Bluegrass [6, 21] | Plant response rating, Bluegrass [6, 22] | Plant response rating, Bluegrass [6, 23] | Plant response rating, Canarygrass [8, 20] | Plant response rating, Canarygrass [8, 21] | Plant response rating, Bromegrass, Downy [9, 20] | Plant response rating, Bromegrass, Downy [9, 21] | Plant response rating, Bromegrass, Downy [9, 22] | Plant response rating, Pigweed [11, 20] | Plant response rating, Pigweed [11, 21] | Plant response rating, Pigweed [11, 22] | Plant response rating, Pigweed [11, 23] | Plant response rating, Wheat, Spring [12, 20] | Plant response rating, Mustard, Wild [13, 22] | Plant response rating, Mustard, Wild [13, 23] | Plant response rating, Oat, Wild [14, 20] | Plant response rating, Oat, Wild [14, 21] | Plant response rating, Windgrass [15, 20] | Plant response rating, Windgrass [15, 21] | Plant response rating, Barley, Winter [16, 20] | Plant response rating, Barley, Winter [16, 21] | Plant response rating, Barley, Winter [16, 22] | Plant response rating, Wheat, Winter [17, 20] | Plant response rating, Wheat, Winter [17, 21]
50: Plant response rating, Blackgrass [7, 21] | Plant response rating, Oat, Wild [14, 22]
10: Plant response rating, Barley [4, 18]
40: Plant response rating, Windgrass ([3]; 16 g ai/ha, scale 0 to 100) | Plant response rating, Ryegrass, Italian [5, 20] | Plant response rating, Ryegrass, Italian [5, 21] | Plant response rating, Bromegrass, Downy [9, 23]
90: Plant response rating, Canarygrass ([1]; 31 g ai/ha, scale 0 to 100) | Plant response rating, Ryegrass, Italian [5, 22]
75: Plant response rating, Wheat, Spring [12, 23]
100: Plant response rating, Ryegrass, Italian [5, 23] | Plant response rating, Foxtail, Green [10, 22] | Plant response rating, Foxtail, Green [10, 23]
35: Plant response rating, Blackgrass [7, 20] | Plant response rating, Foxtail, Green [10, 20] | Plant response rating, Wheat, Spring [12, 21] | Plant response rating, Windgrass [15, 22]
70: Plant response rating, Oat, Wild [14, 23] | Plant response rating, Barley, Winter [16, 23] | Plant response rating, Wheat, Winter [17, 23]
98: Plant response rating, Blackgrass [7, 23]
95: Plant response rating, Canarygrass [8, 23] | Plant response rating, Foxtail, Green [10, 21]
65: Plant response rating, Blackgrass [7, 22]
85: Plant response rating, Canarygrass [8, 22]

CCc1cc(-c2ccc(Cl)c(Cl)c2)nn1-c1c(O)cnn(C)c1=O [Compound 20]
60: Plant response rating, Blackgrass [7, 27] | Plant response rating, Wheat, Spring [12, 28] | Plant response rating, Wheat, Winter [17, 28]
5: Canarygrass plant response rating [1]
35: Plant response rating, Blackgrass [7, 26] | Plant response rating, Canarygrass [8, 26]
75: Plant response rating, Blackgrass [7, 28] | Plant response rating, Canarygrass [8, 27] | Plant response rating, Windgrass [15, 28]
65: Plant response rating, Ryegrass, Italian [5, 25]
50: Plant response rating, Canarygrass [1, 24] | Plant response rating, Windgrass [15, 27]
30: Plant response rating, Canarygrass ([1]; 16 g ai/ha, scale 0 to 100) | Plant response rating, Wheat, Winter [17, 27]
90: Plant response rating, Windgrass ([3]; 62 g ai/ha, scale 0 to 100)
25: Plant response rating, Wheat, Spring [12, 26] | Plant response rating, Wheat, Spring [12, 27]
95: Plant response rating, Ryegrass, Italian [5, 27] | Plant response rating, Canarygrass [8, 28]
98: Plant response rating, Ryegrass, Italian [5, 28] | Plant response rating, Foxtail, Green [10, 28] | Plant response rating, Oat, Wild [14, 26]
10: Plant response rating, Canarygrass [8, 25] | Plant response rating, Bromegrass, Downy [9, 28] | Plant response rating, Oat, Wild [14, 25]
20: Windgrass plant response rating [3] | Plant response rating, Barley, Winter [16, 27] | Plant response rating, Barley, Winter [16, 28] | Plant response rating, Wheat, Winter [17, 26]
100: Plant response rating, Oat, Wild [14, 27] | Plant response rating, Oat, Wild [14, 28]
80: Plant response rating, Ryegrass, Italian [5, 26] | Plant response rating, Foxtail, Green [10, 27]
85: Plant response rating, Windgrass [3, 24]
0: Chickweed plant response rating [2] | Plant response rating, Chickweed ([2]; 16 g ai/ha, scale 0 to 100) | Plant response rating, Chickweed [2, 24] | Plant response rating, Chickweed ([2]; 62 g ai/ha, scale 0 to 100) | Barley plant response rating [4] | Plant response rating, Barley [4, 19] | Plant response rating, Barley [4, 24] | Plant response rating, Barley ([4]; 62 g ai/ha, scale 0 to 100) | Plant response rating, Bluegrass [6, 25] | Plant response rating, Bluegrass [6, 26] | Plant response rating, Bluegrass [6, 27] | Plant response rating, Bluegrass [6, 28] | Plant response rating, Blackgrass [7, 25] | Plant response rating, Bromegrass, Downy [9, 25] | Plant response rating, Bromegrass, Downy [9, 26] | Plant response rating, Bromegrass, Downy [9, 27] | Plant response rating, Foxtail, Green [10, 25] | Plant response rating, Pigweed [11, 25] | Plant response rating, Pigweed [11, 26] | Plant response rating, Pigweed [11, 27] | Plant response rating, Pigweed [11, 28] | Plant response rating, Wheat, Spring [12, 25] | Plant response rating, Mustard, Wild [13, 25] | Plant response rating, Mustard, Wild [13, 26] | Plant response rating, Mustard, Wild [13, 27] | Plant response rating, Mustard, Wild [13, 28] | Plant response rating, Windgrass [15, 25] | Plant response rating, Windgrass [15, 26] | Plant response rating, Barley, Winter [16, 25] | Plant response rating, Barley, Winter [16, 26] | Plant response rating, Wheat, Winter [17, 25]
70: Plant response rating, Windgrass ([3]; 16 g ai/ha, scale 0 to 100) | Plant response rating, Foxtail, Green [10, 26]
